Data taken from patent US6815546B2, “Analogues of camptothecin, their use as medicaments and the pharmaceutical compositions containing them” (Societe de Recherches et d'Applications Scientifiques …, priority 1995, dated 2004).

Columns and labels:
Type in all cases: cell-based
[1] = test system: A172 (human glioblastoma); experiment: Test on cell proliferation (MTT test), A172; conditions: 72 hours
Description: (§1) a. Eight tumoral cell lines are used in this study: L1210 (mouse lymphocytic leukemia), HCT15 and LOVO (cell lines of human colon adenocarcinoma), A549 (human lung carcinoma), A172, U373 et U87 (human glioblastoma). All these lines are obtained from the American Type Culture Collection (ATCC), Rockville, Md. The L1210 cell cultures in suspension are cultured in Dulbecco's modified Eagle's medium (DMEM) (BioWhitaker, Verviers, Belgium) together with 10% of foetal calf serum inactivated by heating, 2 mM of glutamine, 50 μg/ml of penicillin and 50 μg/ml of streptomycin. The HT29 cells are cultured in mono-layer cultures in a McCoy 5a medium (Gibco, Paisley, United Kingdom) together with 10% of foetal calf serum inactivated by heat plus 2 mM of glutamine and 50 μg/ml of gentamycin. The other cells are cultured in an Earle's modified essential medium (EMEM; Gibco, Paisley, United Kingdom) together with 5% foetal calf serum inactivated by heat, 2 mM of glutamine, 50 U/ml of penicillin and 50 μg/ml of streptomycin. All the cell lines are cultured at 37° C. in a humidified atmosphere containing 95% air and 5% CO2.
(§2) Inhibition of the tumor cell line proliferation is determined using an MTT test. 1500 L1210 cells in a culture medium (according to the needs of the cell medium) are seeded in a well of a micro-well plate (tissue culture level: 96 wells, flat bottom) 24 hours before treatment with the compounds to be tested. For these dose-response studies, the cells are incubated with each of the compounds to be tested or their corresponding solvent (controls) for 48 hours over a final concentration range of 1.10^−10 to 1.10^−4 M. All the compounds are dissolved just before use in dimethylsulphoxide (DMSO) at a concentration of 50 mM. Other dilutions of the medicaments are carried out in the culture medium. The final concentration of DMSO never exceeds 0.2% (v/v). As controls, the solutions of medicaments are replaced with the solvent which is diluted successively in the same way as the compounds to be tested.
(§3) After the incubation period, the labeling reagent MTT (3-[4,5-dimethylthiazol-2-yl]-2,5-diphenyltetrazolium bromide; Thiazol blue, Sigma M 565, Sigma, St Louis, Mo.) is added at a final concentration of 0.3 mg/ml to each well. The cells are incubated for 4 hours at 37° C. in a humidified atmosphere. This stage allows the mitochondrial dehydrogenase of the living cells to convert the yellow tetrazolium salt MTT into crimson formazan crystals. The supernatant part is eliminated and the formazan crystals formed are solubilized with DMSO. The resultant coloured solution is quantified by absorbance at 570 nm by using a multi-cuvette scanning spectrophotometer. The data concerning the proliferation is expressed as a percentage of living cells in the treated wells, divided by the living cells in the controls. Each point represents the average of three independent experiments, each experiment represents six determinations.
(§4) For the other cell lines (HCT15, LOVO, A549, A172, U373, U87), 1000 to 2000 cells are seeded in the well of a micro-well plate 24 hours before medicinal treatment. […]
(§5) The results are expressed as percentages of the calculated proliferation by the optical density (OD) of the cells treated with a medicament divided by the OD of the control cells (cells treated with DMSO). As represented in Table II, the compounds to be tested have inhibited the proliferation of cells in a dose-dependent manner.

[2] = test system: U373 (human glioblastoma); experiment: Test on cell proliferation (MTT test), U373; conditions: 72 hours
Description: as §1, §2, §3, §4, §5

[3] = test system: LOVO (cell lines of human colon adenocarcinoma); experiment: Test on cell proliferation (MTT test), LOVO; conditions: 72 hours
Description: as §1, §2, §3, §4, §5

[4] = test system: U87 (human glioblastoma); experiment: Test on cell proliferation (MTT test), U87; conditions: 72 hours
Description: as §1, §2, §3, §4, §5

[5] = test system: A549 (human lung carcinoma); experiment: Test on cell proliferation (MTT test), A549; conditions: 72 hours
Description: as §1, §2, §3, §4, §5

[6] = test system: HCT15 (cell lines of human colon adenocarcinoma); experiment: Test on cell proliferation (MTT test), HCT15; conditions: 72 hours
Description: as §1, §2, §3, §4, §5

[7] = test system: L1210 (mouse lymphocytic leukemia); experiment: Test on cell proliferation (MTT test), L1210; conditions: 48 hours
Description: as §1, §2, §3, §5

## CCc1c2c(nc3ccccc13)-c1cc(C(O)(CC)CC(=O)O)c(CO)c(=O)n1C2 (stereo not shown) [Example 10, 3-[12-ethyl-8-(hydroxymethyl)-9-oxo-9,11-dihydroindolizino[1,2-b]quinolin-7-yl]-3-hydroxypentanoic acid]
[1]; 0.1 nM
  PERCENTAGE OF CELL PROLIFERATION: 93.00%
[1]; 1 nM
  PERCENTAGE OF CELL PROLIFERATION: 92.00%
[1]; 10 nM
  PERCENTAGE OF CELL PROLIFERATION: 91.00%
[1]; 100 nM
  PERCENTAGE OF CELL PROLIFERATION: 60.00%
[1]; 1 000 nM
  PERCENTAGE OF CELL PROLIFERATION: 39.00%
[1]; 10 000 nM
  PERCENTAGE OF CELL PROLIFERATION: 15.00%
[1]; 100 000 nM
  PERCENTAGE OF CELL PROLIFERATION: 3.00%
[2]; 0.1 nM
  PERCENTAGE OF CELL PROLIFERATION: 96.00%
[2]; 1 nM
  PERCENTAGE OF CELL PROLIFERATION: 104.00%
[2]; 10 nM
  PERCENTAGE OF CELL PROLIFERATION: 87.00%
[2]; 100 nM
  PERCENTAGE OF CELL PROLIFERATION: 35.00%
[2]; 1 000 nM
  PERCENTAGE OF CELL PROLIFERATION: 20.00%
[2]; 10 000 nM
  PERCENTAGE OF CELL PROLIFERATION: 10.00%
[2]; 100 000 nM
  PERCENTAGE OF CELL PROLIFERATION: 2.00%
[3]; 0.1 nM
  PERCENTAGE OF CELL PROLIFERATION: 71.00%
[3]; 1 nM
  PERCENTAGE OF CELL PROLIFERATION: 76.00%
[3]; 10 nM
  PERCENTAGE OF CELL PROLIFERATION: 77.00%
[3]; 100 nM
  PERCENTAGE OF CELL PROLIFERATION: 52.00%
[3]; 1 000 nM
  PERCENTAGE OF CELL PROLIFERATION: 29.00%
[3]; 10 000 nM
  PERCENTAGE OF CELL PROLIFERATION: 18.00%
[3]; 100 000 nM
  PERCENTAGE OF CELL PROLIFERATION: 4.00%
[4]; 0.1 nM
  PERCENTAGE OF CELL PROLIFERATION: 96.00%
[4]; 1 nM
  PERCENTAGE OF CELL PROLIFERATION: 79.00%
[4]; 10 nM
  PERCENTAGE OF CELL PROLIFERATION: 89.00%
[4]; 100 nM
  PERCENTAGE OF CELL PROLIFERATION: 17.00%
[4]; 1 000 nM
  PERCENTAGE OF CELL PROLIFERATION: 6.00%
[4]; 10 000 nM
  PERCENTAGE OF CELL PROLIFERATION: 5.00%
[4]; 100 000 nM
  PERCENTAGE OF CELL PROLIFERATION: 2.00%
[5]; 0.1 nM
  PERCENTAGE OF CELL PROLIFERATION: 71.00%
[5]; 1 nM
  PERCENTAGE OF CELL PROLIFERATION: 76.00%
[5]; 10 nM
  PERCENTAGE OF CELL PROLIFERATION: 71.00%
[5]; 100 nM
  PERCENTAGE OF CELL PROLIFERATION: 56.00%
[5]; 1 000 nM
  PERCENTAGE OF CELL PROLIFERATION: 36.00%
[5]; 10 000 nM
  PERCENTAGE OF CELL PROLIFERATION: 22.00%
[5]; 100 000 nM
  PERCENTAGE OF CELL PROLIFERATION: 7.00%
[6]; 0.1 nM
  PERCENTAGE OF CELL PROLIFERATION: 111.00%
[6]; 1 nM
  PERCENTAGE OF CELL PROLIFERATION: 87.00%
[6]; 10 nM
  PERCENTAGE OF CELL PROLIFERATION: 103.00%
[6]; 100 nM
  PERCENTAGE OF CELL PROLIFERATION: 63.00%
[6]; 1 000 nM
  PERCENTAGE OF CELL PROLIFERATION: 42.00%
[6]; 10 000 nM
  PERCENTAGE OF CELL PROLIFERATION: 17.00%
[6]; 100 000 nM
  PERCENTAGE OF CELL PROLIFERATION: 9.00%
[7]; 0.1 nM
  PERCENTAGE OF CELL PROLIFERATION: 91.51%
[7]; 1 nM
  PERCENTAGE OF CELL PROLIFERATION: 97.94%
[7]; 10 nM
  PERCENTAGE OF CELL PROLIFERATION: 89.28%
[7]; 100 nM
  PERCENTAGE OF CELL PROLIFERATION: 67.32%
[7]; 1 000 nM
  PERCENTAGE OF CELL PROLIFERATION: 31.51%
[7]; 10 000 nM
  PERCENTAGE OF CELL PROLIFERATION: 19.78%
[7]; 100 000 nM
  PERCENTAGE OF CELL PROLIFERATION: 3.65%
